Patent publication US20110311601A1, “ANTIMICROBIAL MEDICAL DEVICES” (priority 2010, published 2011)
Where no end group is shown, it is not given here.

Experiments:
Assay in all cases: micro-dilution assay (MBC, LD90)
Format in all cases: cell-based
[1] = system: Acinetobacter calcoaceticus ATCC 23055
How it was run: (§1)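 MBC (99.9% killing) and LD90 (90% killing) come from CFU counts normalised to an untreated growth control. Organisms grown in BHI, washed into 10 mM sodium phosphate buffer pH 7.2 at 10^4 cells/ml, then incubated 2 h with hβD2 (final 0.0125–100 mg/l) before plating.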

[2] = system: Acinetobacter lwoffii ATCC 15309
How it was run: as §1

[3] = system: Campylobacter jejuni ATCC 33560
How it was run: as §1

[4] = system: Candida albicans C.a 39 (wild-type)
How it was run: as §1

[5] = system: Candida glabrata ATCC 90030
How it was run: as §1

[6] = system: Candida glabrata Va 27966/02 (wild-type)
How it was run: as §1

[7] = system: Candida parapsilosis ATCC 90018
How it was run: as §1

[8] = system: Citrobacter freundii BK 3796/00 (wild-type)
How it was run: as §1

[9] = system: E. coli (ESBI 4) Va 10866/02 (wild-type)
How it was run: as §1

[10] = system: E. coli ATCC 35218
How it was run: as §1

[11] = system: Enterobacter aerogenes Va 12738/03 (wild-type)
How it was run: as §1

[12] = system: Helicobacter pylori ATCC 49503
How it was run: as §1

[13] = system: Klebsiella pneumoniae ATCC 13883
How it was run: as §1

[14] = system: Klebsiella pneumoniae ATCC 700603 ESBL
How it was run: as §1

[15] = system: Morganella morganii RV B4/97
How it was run: as §1

[16] = system: Propionibacterium acnes NCTC 737
How it was run: as §1

[17] = system: Proteus mirabilis (ESBL 8) (wild-type)
How it was run: as §1

[18] = system: Proteus mirabilis UR 1792/03 (wild-type)
How it was run: as §1

[19] = system: Proteus vulgaris ATCC 13315
How it was run: as §1

[20] = system: Proteus vulgaris Mero 103/067 (wild-type)
How it was run: as §1

[21] = system: Pseudomonas aeruginosa ATCC 10145
How it was run: as §1

[22] = system: Pseudomonas aeruginosa CF 479 mr (wild-type)
How it was run: as §1

[23] = system: Pseudomonas aeruginosa CF 645 (mukoid)(wild-type)
How it was run: as §1

[24] = system: Pseudomonas fluorescens NCTC 10038
How it was run: as §1

[25] = system: Pseudomonas putida BK 4912
How it was run: as §1

[26] = system: Streptococcus pneumoniae DSM 11865 (Penr)
How it was run: as §1

## human β-defensin-2 (GIGDPVTCLKSGAICHPVFCPRRYKQIGTCGLPGTKCCKKP; ends and bridges not checked; cysteine pairing not given here) [hβD2, recombinant hβD2]
[1]
  LD 90 = μg/ml 90% killing: 0.39 µg/mL
  MBC = μg/ml 99.9% killing: 0.78 µg/mL
[2]
  LD 90 = μg/ml 90% killing: 0.39 µg/mL
  MBC = μg/ml 99.9% killing: 0.78 µg/mL
[3]
  LD 90 = μg/ml 90% killing: 3.125 µg/mL
  MBC = μg/ml 99.9% killing: 6.25 µg/mL
[4]
  LD 90 = μg/ml 90% killing: 12.5 µg/mL
  MBC = μg/ml 99.9% killing: 50 µg/mL
[5]
  LD 90 = μg/ml 90% killing: 50 µg/mL
  MBC = μg/ml 99.9% killing: >100 µg/mL
[6]
  LD 90 = μg/ml 90% killing: 12.5 µg/mL
  MBC = μg/ml 99.9% killing: >100 µg/mL
[7]
  LD 90 = μg/ml 90% killing: 12.5 µg/mL
  MBC = μg/ml 99.9% killing: 25 µg/mL
[8]
  LD 90 = μg/ml 90% killing: 3.125 µg/mL
  MBC = μg/ml 99.9% killing: 6.25 µg/mL
[9]
  LD 90 = μg/ml 90% killing: 3.125 µg/mL
  MBC = μg/ml 99.9% killing: 12.5 µg/mL
[10]
  LD 90 = μg/ml 90% killing: 3.125 µg/mL
  MBC = μg/ml 99.9% killing: 6.25 µg/mL
[11]
  LD 90 = μg/ml 90% killing: 6.25 µg/mL
  MBC = μg/ml 99.9% killing: 25 µg/mL
[12]
  LD 90 = μg/ml 90% killing: 12.5 µg/mL
  MBC = μg/ml 99.9% killing: 50 µg/mL
[13]
  LD 90 = μg/ml 90% killing: 12.5 µg/mL
  MBC = μg/ml 99.9% killing: 25 µg/mL
[14]
  LD 90 = μg/ml 90% killing: 25 µg/mL
  MBC = μg/ml 99.9% killing: 100 µg/mL
[15]
  LD 90 = μg/ml 90% killing: 100 µg/mL
  MBC = μg/ml 99.9% killing: >100 µg/mL
[16]
  LD 90 = μg/ml 90% killing: 50 µg/mL
  MBC = μg/ml 99.9% killing: 100 µg/mL
[17]
  LD 90 = μg/ml 90% killing: 100 µg/mL
  MBC = μg/ml 99.9% killing: >100 µg/mL
[18]
  LD 90 = μg/ml 90% killing: 3.125 µg/mL
  MBC = μg/ml 99.9% killing: 12.5 µg/mL
[19]
  LD 90 = μg/ml 90% killing: 3.125 µg/mL
  MBC = μg/ml 99.9% killing: 12.5 µg/mL
[20]
  LD 90 = μg/ml 90% killing: 100 µg/mL
  MBC = μg/ml 99.9% killing: >100 µg/mL
[21]
  LD 90 = μg/ml 90% killing: 6.25 µg/mL
  MBC = μg/ml 99.9% killing: 12.5 µg/mL
[22]
  LD 90 = μg/ml 90% killing: 12.5 µg/mL
  MBC = μg/ml 99.9% killing: 25 µg/mL
[23]
  LD 90 = μg/ml 90% killing: 25 µg/mL
  MBC = μg/ml 99.9% killing: 12.5 µg/mL
[24]
  LD 90 = μg/ml 90% killing: 6.25 µg/mL
  MBC = μg/ml 99.9% killing: 25 µg/mL
[25]
  LD 90 = μg/ml 90% killing: 6.25 µg/mL
  MBC = μg/ml 99.9% killing: 12.5 µg/mL
[26]
  LD 90 = μg/ml 90% killing: 50 µg/mL
  MBC = μg/ml 99.9% killing: 100 µg/mL
